{"source": "ChEMBL document CHEMBL4130627", "about": "“Prodrugs of the Phosphoribosylated Forms of Hydroxypyrazinecarboxamide Pseudobase T-705 and Its De-Fluoro Analogue T-1105 as Potent Influenza Virus Inhibitors” (J Med Chem, 2018)", "assay_in_all_cases": "microbe, parasite or virus in culture", "key": {"Influenza B virus [1]": {"tested_on": "Influenza B virus", "conditions": "Ned/537/05, MDCK, 72 h"}, "Influenza B virus [2]": {"tested_on": "Influenza B virus", "conditions": "Ned/537/05, MDCK, 72 h", "remark": "listed apart in the source"}, "Influenza A virus [3]": {"tested_on": "Influenza A virus", "conditions": "MDCK, 72 h"}, "Influenza A virus [4]": {"tested_on": "Influenza A virus", "conditions": "MDCK, 72 h", "remark": "listed apart in the source"}}}
{"smiles": "NC(=O)c1nc(F)cnc1O", "values": [{"measurement": "EC50", "setting": "Influenza B virus [1]", "value": "> 250", "unit": "µM"}, {"measurement": "EC50", "setting": "Influenza B virus [2]", "value": "> 250", "unit": "µM"}, {"measurement": "EC50", "setting": "Influenza A virus [3]", "value": "> 250", "unit": "µM"}, {"measurement": "EC50", "setting": "Influenza A virus [4]", "value": "> 250", "unit": "µM"}]}
{"smiles": "NC(=O)c1nccn([C@@H]2O[C@H](CO)[C@@H](O)[C@H]2O)c1=O", "values": [{"measurement": "EC50", "setting": "Influenza B virus [1]", "value": 20, "unit": "µM"}, {"measurement": "EC50", "setting": "Influenza B virus [2]", "value": 19, "unit": "µM"}, {"measurement": "EC50", "setting": "Influenza A virus [3]", "value": 51, "unit": "µM"}, {"measurement": "EC50", "setting": "Influenza A virus [4]", "value": 53, "unit": "µM"}]}
{"smiles": "CCCCCCCCCCCCCCC(=O)Oc1ccc(COP(=O)(OCc2ccc(OC(=O)CCCC)cc2)OP(=O)(O)OC[C@H]2O[C@@H](n3cc(F)nc(C(N)=O)c3=O)[C@H](O)[C@@H]2O)cc1.CCN(CC)CC", "note": "(stereo partly specified)", "values": [{"measurement": "EC50", "setting": "Influenza B virus [1]", "value": 3.4, "unit": "µM"}, {"measurement": "EC50", "setting": "Influenza B virus [2]", "value": 2.8, "unit": "µM"}, {"measurement": "EC50", "setting": "Influenza A virus [3]", "value": 8.8, "unit": "µM"}, {"measurement": "EC50", "setting": "Influenza A virus [4]", "value": 6.6, "unit": "µM"}]}
{"smiles": "CCCCCCCCCC(=O)Oc1ccc(COP(=O)(OCc2ccc(OC(=O)CCCCCCCCC)cc2)OP(=O)(O)OP(=O)(O)OC[C@H]2O[C@@H](n3ccnc(C(N)=O)c3=O)[C@H](O)[C@@H]2O)cc1.CCN(CC)CC.CCN(CC)CC", "values": [{"measurement": "EC50", "setting": "Influenza B virus [1]", "value": 1.9, "unit": "µM"}, {"measurement": "EC50", "setting": "Influenza B virus [2]", "value": 1, "unit": "µM"}, {"measurement": "EC50", "setting": "Influenza A virus [3]", "value": 4.5, "unit": "µM"}, {"measurement": "EC50", "setting": "Influenza A virus [4]", "value": 2.6, "unit": "µM"}]}
{"smiles": "CC(=O)O[C@@H]1[C@H](OC(C)=O)[C@@H](COP2(=O)OCc3cccc(C)c3O2)O[C@H]1n1ccnc(C(N)=O)c1=O", "note": "(stereo partly specified)", "values": [{"measurement": "EC50", "setting": "Influenza B virus [1]", "value": "> 400", "unit": "µM"}, {"measurement": "EC50", "setting": "Influenza B virus [2]", "value": 177, "unit": "µM"}, {"measurement": "EC50", "setting": "Influenza A virus [3]", "value": "> 400", "unit": "µM"}, {"measurement": "EC50", "setting": "Influenza A virus [4]", "value": "> 400", "unit": "µM"}]}
{"smiles": "NC(=O)c1nc(Br)cnc1O", "values": [{"measurement": "EC50", "setting": "Influenza B virus [1]", "value": "> 250", "unit": "µM"}, {"measurement": "EC50", "setting": "Influenza B virus [2]", "value": 63, "unit": "µM"}, {"measurement": "EC50", "setting": "Influenza A virus [3]", "value": "> 250", "unit": "µM"}, {"measurement": "EC50", "setting": "Influenza A virus [4]", "value": "> 250", "unit": "µM"}]}
{"smiles": "NC(=O)c1nccnc1O", "values": [{"measurement": "EC50", "setting": "Influenza B virus [1]", "value": "> 250", "unit": "µM"}, {"measurement": "EC50", "setting": "Influenza B virus [2]", "value": "> 250", "unit": "µM"}, {"measurement": "EC50", "setting": "Influenza A virus [3]", "value": "> 250", "unit": "µM"}, {"measurement": "EC50", "setting": "Influenza A virus [4]", "value": "> 250", "unit": "µM"}]}
{"smiles": "CCCCCCCCCC(=O)Oc1ccc(COP(=O)(OCc2ccc(OC(=O)CCCCCCCCC)cc2)OP(=O)(O)OC[C@H]2O[C@@H](n3ccnc(C(N)=O)c3=O)[C@H](O)[C@@H]2O)cc1.CCN(CC)CC", "values": [{"measurement": "EC50", "setting": "Influenza B virus [1]", "value": 0.55, "unit": "µM"}, {"measurement": "EC50", "setting": "Influenza B virus [2]", "value": 0.39, "unit": "µM"}, {"measurement": "EC50", "setting": "Influenza A virus [3]", "value": 0.97, "unit": "µM"}, {"measurement": "EC50", "setting": "Influenza A virus [4]", "value": 1.3, "unit": "µM"}]}
{"smiles": "Cc1cccc2c1OP(=O)(OC[C@H]1O[C@@H](n3ccnc(C(N)=O)c3=O)[C@H](O)[C@@H]1O)OC2", "note": "(stereo partly specified)", "values": [{"measurement": "EC50", "setting": "Influenza B virus [1]", "value": 200, "unit": "µM"}, {"measurement": "EC50", "setting": "Influenza B virus [2]", "value": 106, "unit": "µM"}, {"measurement": "EC50", "setting": "Influenza A virus [3]", "value": 368, "unit": "µM"}, {"measurement": "EC50", "setting": "Influenza A virus [4]", "value": 256, "unit": "µM"}]}
{"smiles": "CCCCCCCCCCCCCCC(=O)Oc1ccc(COP(=O)(OCc2ccc(OC(=O)CCCC)cc2)OP(=O)(O)OP(=O)(O)OC[C@H]2O[C@@H](n3ccnc(C(N)=O)c3=O)[C@H](O)[C@@H]2O)cc1.CCN(CC)CC.CCN(CC)CC", "note": "(stereo partly specified)", "values": [{"measurement": "EC50", "setting": "Influenza B virus [1]", "value": 2.6, "unit": "µM"}, {"measurement": "EC50", "setting": "Influenza B virus [2]", "value": 1.5, "unit": "µM"}, {"measurement": "EC50", "setting": "Influenza A virus [3]", "value": 5.4, "unit": "µM"}, {"measurement": "EC50", "setting": "Influenza A virus [4]", "value": 5.6, "unit": "µM"}]}
{"smiles": "CCCCCCCCCCCCCCC(=O)Oc1ccc(COP(=O)(OCc2ccc(OC(=O)CCCC)cc2)OP(=O)(O)OC[C@H]2O[C@@H](n3ccnc(C(N)=O)c3=O)[C@H](O)[C@@H]2O)cc1.CCN(CC)CC", "note": "(stereo partly specified)", "values": [{"measurement": "EC50", "setting": "Influenza B virus [1]", "value": 0.66, "unit": "µM"}, {"measurement": "EC50", "setting": "Influenza B virus [2]", "value": 0.53, "unit": "µM"}, {"measurement": "EC50", "setting": "Influenza A virus [3]", "value": 1.4, "unit": "µM"}, {"measurement": "EC50", "setting": "Influenza A virus [4]", "value": 1.5, "unit": "µM"}]}
{"smiles": "NC(=O)c1nc(Br)cn([C@@H]2O[C@H](CO)[C@@H](O)[C@H]2O)c1=O", "values": [{"measurement": "EC50", "setting": "Influenza B virus [1]", "value": "> 250", "unit": "µM"}, {"measurement": "EC50", "setting": "Influenza B virus [2]", "value": 170, "unit": "µM"}, {"measurement": "EC50", "setting": "Influenza A virus [3]", "value": "> 250", "unit": "µM"}, {"measurement": "EC50", "setting": "Influenza A virus [4]", "value": "> 250", "unit": "µM"}]}
{"smiles": "NC(=O)c1ncn([C@@H]2O[C@H](CO)[C@@H](O)[C@H]2O)n1", "note": "[RIBAVIRIN]", "values": [{"measurement": "EC50", "setting": "Influenza B virus [2]", "value": 1.5, "unit": "µM"}, {"measurement": "EC50", "setting": "Influenza A virus [3]", "value": 5.8, "unit": "µM"}, {"measurement": "EC50", "setting": "Influenza A virus [4]", "value": 5, "unit": "µM"}]}
